Series [1] in a line: Aerosol performances by Andersen Cascade Impactor (Eur. Pharm. 2.09.18), HPLC quantification. As to conditions: Example 5 formulation, mean n = 2; for Delivered Dose: 63 μl valve, nominal 6 μg formoterol / 50 μg BDP per actuation; for Fine particle dose: ACI S3 to filter, particles ≦4.7 microns; for Fine particle fraction: ratio respirable dose / delivered dose. Type of series: physicochemical. As for the experimental part: This formulation was filled into an aluminum canister under pressure and fitted with a metering valve having a 63 μl metering chamber.
Quantification of beclometasone dipropionate (BDP) and formoterol fumarate dehydrate (FF) was performed using a HPLC method. The following parameters were determined: • i) delivered dose is calculated from the cumulative deposition in the ACI, divided by the number of actuations per experiment; • ii) respirable dose (fine particle dose=FPD) is obtained from the deposition from Stages 3 (S3) to filter (AF) of the ACI, corresponding to particles of diameter ≦4.7 microns, divided by the number of actuations per experiment; • iii) respirable fraction (fine particle fraction=FPF) which is the percent ratio between the respirable dose and the delivered dose; • iv) mass median aerodynamic diameter (MMAD) which is the diameter around which the mass aerodynamic diameters of the emitted particles are distributed equally; and • v) Geometric standard deviation (GSD) which is a measure of the spread of the aerodynamic particle size distribution.

A short description of series [2]: Storage (chemical) stability of HFA134a/ethanol pMDI solution. Type of series: physicochemical. The note with it: BDP in ethanol/HFA134a mixture, room temperature. The protocol:
However, although it has the apparent pH adjusted according to the teaching of WO 01/89480 for improving its chemical stability, due to the limited stability of formoterol in solution, said formulation can be stored for no longer than 15 months at a refrigerator temperature (from +2 to +8° C.) and for no longer than 5 months at room temperature.

Molecules are shown by their SMILES. Counter-ions that a name gives are not always drawn. Like-named read-outs stand apart in the source and are kept apart here.

Regarding `COc1ccc(C[C@@H](C)NC[C@H](O)c2ccc(O)c(NC=O)c2)cc1` (racemic) [formoterol fumarate dihydrate, 2′-hydroxy-5′-[(RS)-1-hydroxy-2{[(RS)-p-methoxy-α-methylphenethyl]amino}ethyl]formanilide], in series [1], the “Delivered Dose” value stood at 3.9 µg, the Fine particle dose is 2.3 µg, the GSD is on record as 1.5 and the MMAD is on record as 2.0 μm. Further, the Fine particle fraction in series [1] is on record as 59.3%. The “change of formoterol fumarate dihydrate solubility in the presence of BDP” value (HFA227:ethanol 92.5:7.5 (w/w)) is listed as “does not change”. Where the note is “HFA227:ethanol 97.3:2.7 (w/w)”, the “change of formoterol fumarate dihydrate solubility in the presence of BDP” value is “does not change”.

`CCC(=O)OCC(=O)[C@@]1(OC(=O)CC)[C@@H](C)C[C@H]2[C@@H]3CCC4=CC(=O)C=C[C@]4(C)[C@@]3(Cl)[C@@H](O)C[C@@]21C` [BDP, (8S,9R,10S,11S,13S,14S,16S,17R)-9-chloro-11-hydroxy-10,13,16-trimethyl-3-oxo-17-[2-(propionyloxy)acetyl]-6,7,8,9,10,11,12,13,14,15,16,17-dodecahydro-3H-cyclopenta[a]phenanthren-17-yl propionate]: in series [1], the “Delivered Dose” value was 46.0 µg, the Fine particle dose is 30.0 µg, the GSD is reported as 2.2 and the MMAD is on record as 1.1 μm. For the same molecule, the Fine particle fraction in series [1] was 64.0%. For the same molecule, the “storage time without significant degradation” value in series [2] is “at least 35 months”.

For the origin of these results see patent publication US8420060B2, “Pharmaceutical aerosol formulations of formoterol and beclometasone dipropionate” (Chiesi Farmaceutici S.p.A., priority 2009, dated 2013).
